Assay results taken from PubChem BioAssay AID1117361 (Southern Research Institute, 2015).
pIC50: −log10 of the molar value.

target: Protein Tat (Human immunodeficiency virus type 1 group M subtype B (isolate HXB2)) (UniProt P04608); assay: inhibitors of Tat binding to TAR RNA, dose response, counter-screen for Vif-APOBEC3G degradation inhibitor project, biochemical, fluorescence polarization, FAM-labeled TAR RNA (AID 1117361)
Sequence (P04608 whole entry, looked up): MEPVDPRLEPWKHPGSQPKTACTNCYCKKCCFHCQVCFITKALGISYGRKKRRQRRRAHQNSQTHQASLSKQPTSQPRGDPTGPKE

| SMILES | pIC50 |
| --- | --- |
| C=C(C)C(=O)Nc1cccc(C2=NOC3(C2)C[C@H](C(N)=O)N(C(=O)COc2ccc(Cl)cc2)C3)c1 (some centres undefined) | 4.76 |
| Cc1cc(C)cc(Nc2ncc3c(n2)CC(c2ccco2)CC3=O)c1 (centres undefined) | 4.37 |
| O=C(OCC1O[C@@H](OC(=O)c2cc(O)c(O)c(O)c2)[C@@H](OC(=O)c2cc(O)c(O)c(O)c2)[C@@H](OC(=O)c2cc(O)c(O)c(O)c2)[C@@H]1OC(=O)c1cc(O)c(O)c(O)c1)c1cc(O)c(O)c(O)c1 (some centres undefined) | 4.60 |
| C=C(C)C(=O)Nc1cccc(C2=NOC3(C2)C[C@@H](C(N)=O)N(C(=O)CC(c2ccccc2)c2ccccc2)C3)c1 (some centres undefined) | 4.53 |
| O=C1NC(c2ccc(Br)cc2)=N/C1=C/c1ccco1 | 5.17 |
| COc1cc(CC(=O)OCC(=O)Nc2cccc([N+](=O)[O-])c2)cc(OC)c1OC | 4.57 |
| CN1C(=O)/C(=C/C=C/c2ccco2)C(=O)NC1=S | 4.95 |
| COc1ccc(CCNC(=O)c2ccc3nc(-c4ccco4)c(-c4ccco4)nc3c2)cc1OC | 5.36 |
| COc1cccc(=O)c2c(C)n(-c3ccc(C(=O)O)cc3)c(C)c12 | 5.51 |
| CNC[C@H](O)c1ccc(O)c(O)c1 | 4.93 |
| O=C(O)C1Nc2c(O)cccc2C2C=CCC12 (centres undefined) | 6.15 |
| O=C(O)Cc1cccc(=O)c(O)c1C(=O)O | 4.26 |
| CCCCC1=CC2=CC(=O)C(C)(OC(=O)c3cnc4ccccc4n3)C(=O)C2=CO1 (centres undefined) | 5.14 |
| Cc1cc(C)cc(Nc2ccc(C(=O)O)cc2N)c1 | 4.33 |
| COc1ccc2[nH]c3c4c(ccc3c2c1)C(=O)C=CC4=O | 4.61 |
| CCOC(=O)NC1(NC2CCCCC2)Oc2ccccc2O1 | 4.05 |
| CCc1ccc(NC(=O)N(CCN2CCOCC2)Cc2ccc3c(c2)CCCN3CC)cc1 | 4.13 |
| Cc1cc(C)c(S(=O)(=O)N2CCCCC2)c(C)c1N(C)S(=O)(=O)c1ccc(Cl)cc1 | 4.54 |
| O=C(O)CCCCC1CCSS1 (centres undefined) | 5.23 |
| NS(=O)(=O)c1ccc2c(c1)C1C=CCC1C(C1CC=CCC1)N2 (centres undefined) | 5.00 |
| O=S(=O)(Nc1nccs1)c1ccc(Nc2nnc(-c3ccccc3)c3ccccc23)cc1 | 4.32 |
| Cc1ccc(NC(=O)COc2ccc(/C=N/NC(=O)CSCc3ccccc3)cc2)cc1 | 4.79 |
| CN(C)c1ccc2cc(S(=O)(=O)O)cc(O)c2c1 | 4.05 |

| SMILES | pIC50 |
| --- | --- |
| Cc1cccc(N/N=C/c2ccc(O)c(O)c2O)c1 | 4.44 |
| O=C1CC(/C=C/c2ccco2)=Nc2ccccc2N1 | 5.17 |
| COC(=O)C1=C(N)OC2=C(C(=O)CCC2)C1c1cccs1 (centres undefined) | 4.28 |
| COc1ccc2nc3ccccc3nc2c1N | 4.09 |
| Cc1ccc([C@@H]2C3COCC=C3C(C#N)=C(N)C2(C#N)C#N)o1 (some centres undefined) | 5.39 |
| Fc1ccccc1/C=C1\CCCC2=C1Nc1ncnn1C2c1ccccc1F (centres undefined) | 4.62 |
| Cc1cc2c(N)cccc2nn1 | 5.68 |
| COc1cccc(C2C(C#N)=C(N)OC3=C2C(=O)CC(c2ccco2)C3)c1OCc1ccc(F)cc1 (centres undefined) | 4.91 |
| COC(=O)c1ccc(COc2ccc(/C=N/Nc3cccc(C(=O)O)c3)cc2)cc1 | 4.20 |
| Cc1cc(C(=O)Nc2sc3c(c2C#N)CCCCC3)cs1 | 4.63 |
| Cc1ccc(-c2c3c([nH]c(=S)c2C#N)CCCC3)o1 | 4.67 |
| O=C(CSc1nc(-c2ccco2)cc(C(F)(F)F)n1)N1CCc2ccccc2C1 | 4.45 |
| Oc1ccc2c(c1)C1CCCC1(N1CCOCC1)O2 (centres undefined) | 4.64 |
| COC(=O)c1ccccc1NC(=O)CCS(=O)(=O)c1ccc(Br)cc1 | 4.74 |
| CC(=O)c1sc(C(=O)O)c(-c2ccco2)c1-c1ccco1 | 5.31 |
| CNc1cccccc1=S | 5.36 |
| Cn1c(N)c(C(=O)COC(=O)C2CCCCC2)c(=O)n(C)c1=O | 4.12 |
| CCN(CC)c1ccc(/C=N/n2c(C)cc(C)cc2=O)cc1 | 5.28 |
| O=c1c(O)cccc2cc(O)c(O)c(O)c12 | 5.40 |
| CCc1ccc(N2C(=O)NC(=O)/C(=C\C=C\c3ccco3)C2=O)cc1 | 4.35 |
| O=C(Nc1cccc(C(F)(F)F)c1)c1ccc2nc(-c3ccco3)c(-c3ccco3)nc2c1 | 5.22 |
| CCN(CC)S(=O)(=O)c1cccc(C(=O)N/N=C/c2ccc(O)c(O)c2O)c1 | 4.03 |
| N#CC1=C(N)OC2=C(CCC/C2=C/c2ccoc2)C1c1ccoc1 (centres undefined) | 5.13 |

| SMILES | pIC50 |
| --- | --- |
| COc1ccc(-n2c(C)cc(C(=O)CSc3nn4c(=O)c(C(C)(C)C)nnc4s3)c2C)cc1 | 4.20 |
| O=CN/C=C/c1cc(O)ccc1O | 4.96 |
| C/C(=N\Nc1ccc(Cl)c(C(=O)O)c1)c1ccc[nH]1 | 4.67 |
| COc1ccc(OC)c(N2C(=O)[C@@H]3C(c4ccccc4Cl)=NO[C@@H]3C2=O)c1 | 4.09 |
| CC[C@H](C)/C=C(C)/C=C/C1=CC2=CC(=O)[C@]3(C)OC(=O)[C@@H](C(C)=O)[C@@H]3C2=CO1 | 4.84 |
| COC(=O)C1C(O)C(C)C(O)C(C)(O)/C=C\C=C(/C)C(=O)Nc2c(C)c(OC(C)=O)c3c(c2O)C(=O)C(C)=C2OCOC(=C23)/C(C)=C/C(C)(O)C(O)C(C)C1O (centres undefined) | 4.26 |
| CC1(C)Cc2nc3sc(C(=O)O)c(N)c3cc2CS1 | 4.55 |
| NS(=O)(=O)c1ccc(N=Nc2c[nH]c(=O)c(O)c2)cc1 | 5.02 |
| O=C(O)c1cc(N2N=C(C(F)(F)F)/C(=C/C=C/c3ccco3)C2=O)ccc1Cl | 6.21 |
| CC1(c2ccc3noc(-c4ccccc4)c3c2)OCCO1 | 5.54 |
| Cc1cc(C)nc(N2CCC(C(=O)O)CC2)n1 | 4.14 |
| CCNc1ccc(Br)cc(C(=O)/C=C/c2ccc(Cl)cc2)c1=O | 4.90 |
| NC(CO)C(=O)NNCc1ccc(O)c(O)c1O (centres undefined) | 5.05 |
| CN1CCc2cccc3c2[C@@H]1Cc1ccc(O)c(O)c1-3 | 5.04 |
| COc1ccccc1-n1c(-c2cc(-c3ccco3)[nH]n2)n[nH]c1=S | 5.27 |
| Cc1ccc(N2C(=O)/C(=C/c3ccc(CN(CCC#N)S(C)(=O)=O)o3)C(=O)NC2=S)cc1 | 4.05 |
| Cc1onc(-c2ccccc2Cl)c1C(=O)NCc1ccco1 | 5.18 |
| O=c1cc(-c2ccc(O)cc2)oc2c(O)c(O)c(O)c(O)c12 | 4.13 |
| Cc1ccc(C)n1-c1ccc(-c2nnc3n2CCCCC3)s1 | 4.27 |
| Cc1cc(C(=O)CSc2nnnn2-c2ccccc2)c(C)n1CC1CCCO1 (centres undefined) | 4.46 |
| O=C(O)c1ccc(Cl)c2c1C1C=CCC1C(c1ccccn1)N2 (centres undefined) | 5.55 |
| CNc1ccc(Br)cc(C(=O)/C=C/c2ccc(Cl)cc2Cl)c1=O | 5.02 |
| COC(=O)C1=C(C)N(Cc2ccccc2)C(=O)/C1=C\c1ccco1 | 4.10 |

| SMILES | pIC50 |
| --- | --- |
| CN1CCN(C2=C(Cl)C(=O)C(c3cnc(N4CCCCC4)s3)=C(Cl)C2=O)CC1 | 5.17 |
| Cc1cccc(NC(=O)CSc2nnc(-c3ccco3)c(-c3ccco3)n2)c1C | 4.82 |
| COc1cc(OC)c2c(c1O)OC(c1ccccc1)CC2=O (centres undefined) | 4.18 |
| CN(C(=O)COC(=O)c1cc(-c2ccco2)nc2ccccc12)C1CCS(=O)(=O)C1 (centres undefined) | 5.20 |
| COC(=O)c1ccc(COc2ccccc2/C=C(\C#N)C(=O)Nc2c(C)cc(C)cc2C)cc1 | 4.34 |
| CC1CCN(S(=O)(=O)c2ccc(C(=O)NCc3ccc4c(c3)OCO4)cc2)CC1 | 4.02 |
| COC/C=C/C1=CC2=CC(=O)C(C)(OC(=O)c3ccco3)C(=O)C2=CO1 (centres undefined) | 5.13 |
| O=C(NC1CC1)c1cc(-c2ccco2)nc2ccccc12 | 5.03 |
| CC(=O)NN1C(=O)/C(=C/c2ccc(Br)o2)SC1=S | 4.44 |
| O=C1CCCC(O)=C1N=Nc1ccc(C(=O)O)cc1 | 5.19 |
| O=C1N=C(N2CCN(c3ccccc3)CC2)S/C1=C\c1ccco1 | 4.93 |
| O=C1C2C3CCCC3=C3CCCC3C2C(=O)N1c1ccccc1 (centres undefined) | 5.08 |
| O=C(O)/C(=C/c1ccco1)NC(=O)c1ccccc1 | 4.81 |
| O=C(O)CCc1ccc(S(=O)(=O)Nc2cc(C(F)(F)F)ccc2N2CCCC2)cc1 | 4.17 |
| O=C(O)C(Cc1ccccc1)N1C(=O)/C(=C/C=C/c2ccco2)SC1=S (centres undefined) | 5.90 |
| CC(/C=N/n1c(-c2ccncc2)n[nH]c1=S)=C\c1ccco1 | 5.09 |
| O=C1c2sc3nc4n(c(=O)c3c2CCC1Br)CCCCC4 (centres undefined) | 5.32 |
| CC(=O)NN1C(=O)/C(=C\c2ccc(Br)o2)SC1=S | 5.32 |
| CC(C)n1c(=NC(=O)c2ccco2)c(C#N)cc2c(=O)n3ccccc3cc21 | 4.02 |
| Oc1cc2c(cc1O)C1c3ccc(O)c(O)c3OCC1(O)C2 (centres undefined) | 4.93 |
| CC1(C)OC(=O)C(=C2CCCN2)C(=O)O1 | 6.05 |
| O=C(Nc1ccn(-c2ccccc2)n1)c1ccccc1Br | 4.52 |
| Cc1ccn2cc(-c3nonc3C)cc2c1 | 4.67 |

| SMILES | pIC50 |
| --- | --- |
| CC(=O)N1CCN(c2nc(-c3ccco3)c3c(c2C#N)CC(C)(C)SC3)CC1 | 4.23 |
| COc1cc(/C=C2/C(=O)c3cccc([N+](=O)[O-])c3C2=O)c(Br)cc1O | 4.02 |
| CN1C(=O)/C(=C/c2ccco2)SC1=Nc1cccc(C(=O)O)c1 | 5.10 |
| CC(=C/C(=O)O)/C=C/c1ccc(Cl)o1 | 4.04 |
| CN(C)N1C(N)=C(C#N)C(c2cccnc2)C2=C1CCCC2=O (centres undefined) | 4.81 |
| N#Cc1c(NC(=O)CSc2ncnc3sccc23)oc(-c2ccco2)c1-c1ccco1 | 5.60 |
| COc1ccc(NC(=S)NCCc2ccccc2OC)c(OC)c1 | 4.86 |
| CC(=O)c1ccc(S(=O)(=O)Nc2cccc(-n3cnnn3)c2)cc1 | 4.13 |
| CCOc1cccc(=O)c2c(C)n(CC(=O)c3ccccc3)c(C)c12 | 4.73 |
| O=C1S/C(=C\C=C\c2ccco2)C(=O)N1c1ccc(O)cc1 | 5.70 |
| CCOC(=O)Cc1cc(=O)n2[nH]c(C)cc2n1 | 4.11 |
| c1coc(-c2nc3ccccc3nc2-c2ccco2)c1 | 5.19 |
| O=[N+]([O-])c1c(NCCO)cc(Sc2nc3ccccc3s2)c2nonc12 | 4.05 |
| Cc1nc2c(=O)[nH]c(=S)[nH]c2[nH]c1=O | 4.88 |
| CC(C)(C)C1C/C(=C/c2ccco2)C(=O)/C(=C/c2ccco2)C1 (centres undefined) | 5.15 |
| Oc1ccc(NCc2ccccc2OCc2ccccc2)cc1 | 4.29 |
| Oc1ccc(/C=N/N2CCOCC2)c(O)c1O | 4.85 |
| CSc1nnc(-c2ccco2)c(-c2ccco2)n1 | 5.22 |
| CCOC(=O)CSc1nncc2ccc(OC)c(OC)c12 | 4.25 |
| Cc1cc(-c2n[nH]c(=S)n2/N=C/C=C/c2ccco2)n[nH]1 | 4.73 |
| COC(=O)C1=C(C)NC(=O)/C1=C\c1ccco1 | 4.40 |
| CCOc1cccc(=O)c2c(C)n(C)c(C)c12 | 4.26 |
